According to patent US6737383B1, “Herbicidal oxadiazolidines” (priority 1999, dated 2004):

Tests used:
blackgrass = test: Test B pre/postemergence blackgrass; type: in vivo, Alopecurus myosuroides
In short: (§1)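 Herbicidal effect was estimated by eye on a ten-point control scale after plants spent twelve to sixteen days in a greenhouse following soil or foliar treatment. Foliar sprays targeted plants at one to four leaves; all doses were formulated in a non-phytotoxic solvent with surfactant.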

sugar beet = test: Test B pre/postemergence sugar beet; type: in vivo, Beta vulgaris
In short: as §1

rape = test: Test B pre/postemergence rape; type: in vivo, Brassica napus
In short: as §1

velvetleaf = test: Test B pre/postemergence velvetleaf; type: in vivo, Abutilon theophrasti
In short: as §1

wild oat = test: Test B pre/postemergence wild oat; type: in vivo, Avena fatua
In short: as §1

wheat = test: Test B pre/postemergence wheat; type: in vivo, Triticum aestivum
In short: as §1

soybean = test: Test B pre/postemergence soybean; type: in vivo, Glycine max
In short: as §1

rice = test: Test B flood test rice; type: in vivo, Oryza sativa; settings: for Rice plant response rating: scale of 0 to 10 where 0 is no effect and 10 is complete control
In short: (§2)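 Plants were grown to the 2-leaf stage before treatment with test chemical, then held in a greenhouse for twelve to sixteen days. Injury was visually rated against untreated controls on a 0–10 scale, where 0 is no effect and 10 is complete control.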

corn = test: Test B pre/postemergence corn; type: in vivo, Zea mays
In short: as §1

giant foxtail = test: Test B pre/postemergence giant foxtail; type: in vivo, Setaria faberii
In short: as §1

crabgrass = test: Test B pre/postemergence crabgrass; type: in vivo, Digitaria sanguinalis
In short: as §1

cocklebur = test: Test B pre/postemergence cocklebur; type: in vivo, Xanthium strumarium
In short: as §1

smallflower flatsedge = test: Test B flood test smallflower flatsedge; type: in vivo, Cyperus difformis; settings: for S. Flatsedge plant response rating: scale of 0 to 10 where 0 is no effect and 10 is complete control
In short: as §2

morningglory = test: Test B pre/postemergence morningglory; type: in vivo, Ipomoea hederacea
In short: as §1

pigweed = test: Test B pre/postemergence pigweed; type: in vivo, Amaranthus retroflexus
In short: as §1

surinam grass = test: Test B pre/postemergence surinam grass; type: in vivo, Brachiaria decumbens
In short: as §1

[1] = Postemergence, Rate 125 g/ha, scale 0 to 10, 0 is no effect, 10 is complete control
[2] = Postemergence, Rate 250 g/ha, scale 0 to 10, 0 is no effect, 10 is complete control
[3] = Postemergence, Rate 500 g/ha, scale of 0 to 10 where 0 is no effect and 10 is complete control
[4] = Preemergence, Rate 62 g/ha, scale 0 to 10 (0 no effect, 10 complete control)
[5] = Preemergence, Rate 125 g/ha, scale of 0 to 10 where 0 is no effect and 10 is complete control
[6] = Preemergence, Rate 250 g/ha, scale of 0 to 10 where 0 is no effect and 10 is complete control
[7] = Preemergence, Rate 500 g/ha, scale 0 to 10, 0 is no effect, 10 is complete control
[8] = Rate 62 g/ha, Postemergence, scale of 0 to 10 where 0 is no effect and 10 is complete control
[9] = Preemergence, Rate 250 g/ha, scale 0 to 10, 0 is no effect, 10 is complete control
[10] = Postemergence section (flood test species), Rate 500 g/ha
[11] = Rate 62 g/ha, Postemergence (flood test species)
[12] = flood test species, listed under Postemergence, Rate 250 g/ha, scale 0 to 10, 0 is no effect, 10 is complete control

## CCOC(=O)C=C(Cn1c(=O)on(C(=O)N(c2ccc(F)cc2)C(C)C)c1=O)OCC [Compound 396]
blackgrass; [1]
  Plant response rating, Blackgrass: 2
blackgrass; [2]
  Plant response rating, Blackgrass: 3
blackgrass; [3]
  Blackgrass plant response rating: 6
blackgrass; [4]
  Plant response rating, Blackgrass: 0
blackgrass; [5]
  Plant response rating, Blackgrass: 0
blackgrass; [6]
  Blackgrass plant response rating: 3
blackgrass; [7]
  Blackgrass plant response rating: 5
blackgrass; [8]
  Blackgrass plant response rating: 0
Sugar beet; [2]
  Plant response rating, Sugarbeets: 0
Sugar beet; [3]
  Sugarbeets plant response rating: 3
Sugar beet; [4]
  Plant response rating, Sugarbeets: 0
Sugar beet; [5]
  Plant response rating, Sugarbeets: 0
Sugar beet; [9]
  Sugarbeets plant response rating: 0
Sugar beet; [7]
  Sugarbeets plant response rating: 2
Sugar beet; [8]
  Sugarbeets plant response rating: 0
rape; [2]
  Plant response rating, Rape: 0
rape; [3]
  Rape plant response rating: 6
rape; [4]
  Plant response rating, Rape: 0
rape; [5]
  Plant response rating, Rape: 0
rape; [9]
  Rape plant response rating: 0
rape; [7]
  Rape plant response rating: 0
rape; [8]
  Rape plant response rating: 0
velvetleaf; [2]
  Plant response rating, Velvetleaf: 0
velvetleaf; [3]
  Velvetleaf plant response rating: 0
velvetleaf; [4]
  Plant response rating, Velvetleaf: 0
velvetleaf; [5]
  Plant response rating, Velvetleaf: 0
velvetleaf; [9]
  Velvetleaf plant response rating: 0
velvetleaf; [7]
  Velvetleaf plant response rating: 0
velvetleaf; [8]
  Velvetleaf plant response rating: 0
Wild oat; [3]
  Wild oats plant response rating: 0
Wild oat; [4]
  Plant response rating, Wild oats: 0
Wild oat; [5]
  Plant response rating, Wild oats: 0
Wild oat; [9]
  Wild oats plant response rating: 2
Wild oat; [7]
  Wild oats plant response rating: 4
Wild oat; [8]
  Wild oats plant response rating: 0
wheat; [3]
  Wheat plant response rating: 0
wheat; [4]
  Plant response rating, Wheat: 0
wheat; [5]
  Plant response rating, Wheat: 0
wheat; [9]
  Wheat plant response rating: 0
wheat; [7]
  Wheat plant response rating: 0
wheat; [8]
  Wheat plant response rating: 0
soybean; [2]
  Plant response rating, Soybean: 3
soybean; [3]
  Soybean plant response rating: 6
soybean; [4]
  Plant response rating, Soybean: 0
soybean; [5]
  Plant response rating, Soybean: 0
soybean; [9]
  Soybean plant response rating: 0
soybean; [7]
  Soybean plant response rating: 0
soybean; [8]
  Soybean plant response rating: 2
rice; [10]
  Rice plant response rating: 0
rice; [11]
  Rice plant response rating: 0
rice; [12]
  Plant response rating, Rice: 0
corn; [1]
  Plant response rating, Corn: 0
corn; [2]
  Plant response rating, Corn: 0
corn; [3]
  Corn plant response rating: 0
corn; [4]
  Plant response rating, Corn: 0
corn; [5]
  Plant response rating, Corn: 0
corn; [9]
  Corn plant response rating: 0
corn; [7]
  Corn plant response rating: 0
corn; [8]
  Corn plant response rating: 0
Giant foxtail; [1]
  Plant response rating, Giant foxtail: 0
Giant foxtail; [2]
  Plant response rating, Giant foxtail: 2
Giant foxtail; [3]
  Giant foxtail plant response rating: 2
Giant foxtail; [4]
  Plant response rating, Giant foxtail: 2
Giant foxtail; [5]
  Plant response rating, Giant foxtail: 10
Giant foxtail; [9]
  Giant foxtail plant response rating: 10
Giant foxtail; [7]
  Giant foxtail plant response rating: 10
Giant foxtail; [8]
  Giant foxtail plant response rating: 0
crabgrass; [1]
  Plant response rating, Crabgrass: 0
crabgrass; [2]
  Plant response rating, Crabgrass: 2
crabgrass; [3]
  Crabgrass plant response rating: 2
crabgrass; [4]
  Plant response rating, Crabgrass: 0
crabgrass; [5]
  Plant response rating, Crabgrass: 7
crabgrass; [9]
  Crabgrass plant response rating: 10
crabgrass; [7]
  Crabgrass plant response rating: 10
crabgrass; [8]
  Crabgrass plant response rating: 0
cocklebur; [1]
  Plant response rating, Cocklebur: 0
cocklebur; [2]
  Plant response rating, Cocklebur: 0
cocklebur; [3]
  Cocklebur plant response rating: 0
cocklebur; [4]
  Plant response rating, Cocklebur: 0
cocklebur; [5]
  Plant response rating, Cocklebur: 0
cocklebur; [9]
  Cocklebur plant response rating: 0
cocklebur; [7]
  Cocklebur plant response rating: 0
cocklebur; [8]
  Cocklebur plant response rating: 0
Smallflower flatsedge; [10]
  S. Flatsedge plant response rating: 0
Smallflower flatsedge; [11]
  S. Flatsedge plant response rating: 0
Smallflower flatsedge; [12]
  Plant response rating, S. Flatsedge: 0
morningglory; [2]
  Plant response rating, Morningglory: 8
morningglory; [3]
  Morningglory plant response rating: 8
morningglory; [4]
  Plant response rating, Morningglory: 0
morningglory; [5]
  Plant response rating, Morningglory: 0
morningglory; [9]
  Morningglory plant response rating: 0
morningglory; [7]
  Morningglory plant response rating: 0
morningglory; [8]
  Morningglory plant response rating: 0
pigweed; [2]
  Plant response rating, Redroot pigweed: 0
pigweed; [3]
  Redroot pigweed plant response rating: 0
pigweed; [4]
  Plant response rating, Redroot pigweed: 0
pigweed; [5]
  Plant response rating, Redroot pigweed: 0
pigweed; [9]
  Redroot pigweed plant response rating: 4
pigweed; [7]
  Redroot pigweed plant response rating: 8
pigweed; [8]
  Redroot pigweed plant response rating: 0
Surinam grass; [1]
  Plant response rating, B. signalgrass: 0
Surinam grass; [2]
  Plant response rating, B. signalgrass: 0
Surinam grass; [3]
  B. signalgrass plant response rating: 0
Surinam grass; [4]
  Plant response rating, B. signalgrass: 0
Surinam grass; [5]
  Plant response rating, B. signalgrass: 0
Surinam grass; [6]
  B. signalgrass plant response rating: 3
Surinam grass; Preemergence, Rate 500 g/ha, scale of 0 to 10 where 0 is no effect and 10 is complete control
  B. signalgrass plant response rating: 5
Surinam grass; [8]
  B. signalgrass plant response rating: 0
